Values of other authors in patent publication US20160185712A1, “PHOTO-ACTIVATED HYDROGELS” (L'OREAL, priority 2014, published 2016).

- water solubility: water soluble
Structure (SMILES): O=C1c2ccccc2C(=O)c2cc(S(=O)(=O)[O-])ccc21.[Na+] [anthraquinone-2-sulfonic acid sodium salt]
